Source: patent publication US4385112A (priority 1980, dated 1983)

What was measured:
Format in all cases: biochemical, Pseudomonas putida B-0781
[1] = test system: nucleoside oxidase; experiment: Effect of surface active agent on enzyme activity (Table 3); settings: 0.1 w/w % surface active agent; None 100
Experimental: (§1) Enzymatic activity should be measured within the value of As below 0.15.
(§2) One unit (1 U.) of enzyme activity is that amount of enzyme such that 1μ mole of hydrogen peroxide is generated in one minute at 37° C. with adenosine as substrate, and represented by the following equation:
(§3) Enzyme activity (U/ml)=1.25×(As-AB)×dilution ratio.

[2] = test system: nucleoside oxidase; experiment: Substrate specificity: relative enzymatic activity on various substrates; settings: substrate each 1 mM concentration
Experimental: Relative enzymatic activities on various substrates (nucleoside, nucleic acid base, sugar, and nucleotide, each 1 mM concentration) shown in Table 1 were measured.
A reaction mixture (0.5 ml) consisting of 0.2 M dimethylglutarate-NaOH buffer (pH 6.0) 0.2 ml, 0.2 w/w% N,N-diethyl-m-toluidine 0.05 ml, 0.3 w/w% 4-aminoantipyrine 0.05 ml, 10 mM adenosine 0.05 ml and distilled water 0.10 ml was pre-incubated at 37° C. for 3 minutes. After adding enzyme solution (20 μl), the mixture was incubated at 37° C. for 10 minutes, and 0.5 ml of 4 M urea solution containing 0.2% cetylpyridiniumchloride was added to stop the reaction. […] Then the enzyme solution was replaced by distilled water (20 μl) as a control (AB).
as §1
One unit (1 U.) of enzyme activity is that amount of enzyme such that 1μ mole of hydrogen peroxide is generated in one minute at 37° C. with adenosine as substrate, and represented by the following equation: […]

[3] = test system: nucleoside oxidase; experiment: Effect of metal ions on enzyme activity (Table 2); design: concentration or dose not given beside the values; settings: control 100; 10 min
Experimental: as §1, §2, §3

[4] = test system: nucleoside oxidase; experiment: Km value of the enzyme; settings: for adenosine
Experimental: as §1, §2, §3

[5] = test system: nucleoside oxidase; experiment: Amount of oxygen consumption and hydrogen peroxide generation in the reaction
Experimental: The amount of consumed oxygen (measured by an oxygen electrode) and generated hydrogen peroxide (colorimetric assay at 545 nm) were measured. Results: adenosine 0.05μ mole; consumed oxygen 0.097μ mole; and generated hydrogen peroxide 0.101μ mole.

Row | Relative activity [2] [%] | Compound | other results
1 | – | C[C@H](CCC(=O)O)[C@H]1CC[C@H]2[C@@H]3CC[C@@H]4C[C@H](O)CC[C@]4(C)[C@H]3C[C@H](O)[C@]12C [sodium deoxycholate] | Relative activity [1]: 102%
2 | 48.2 | NC(=O)c1ncn([C@@H]2O[C@H](CO)[C@@H](O)[C@H]2O)c1O [bredinine, 4-carbamoyl-1-D-ribofuranosylimidazolium-5-olate, reference compound] | –
3 | 0 | Nc1nc2c(ncn2[C@@H]2O[C@H](COP(=O)(O)O)[C@@H](O)[C@H]2O)c(=O)[nH]1 [5'-GMP] | –
4 | 0 | Nc1ccn([C@@H]2O[C@H](COP(=O)(O)O)[C@@H](O)[C@H]2O)c(=O)n1 [5'-CMP] | –
5 | – | [Ba+2] [Ba^2+] | Relative activity [3]: 100%
6 | 0 | O=c1ccn([C@@H]2O[C@H](COP(=O)(O)O)[C@@H](O)[C@H]2O)c(=O)[nH]1 [5'-UMP] | –
7 | – | [Mn+2] [Mn^2+] | Relative activity [3]: 110%
8 | – | CCCCCCCCCCCCCCCC[N+](C)(C)C.[Cl-] [cetyl trimethylammonium chloride] | Relative activity [1]: 78%
9 | 0 | O=c1cc[nH]c(=O)[nH]1 [uracil] | –
10 | – | [Ca+2] [Ca^2+] | Relative activity [3]: 102%
11 | 97.1 | Nc1nc2c(ncn2[C@@H]2O[C@H](CO)[C@@H](O)[C@H]2O)c(=O)[nH]1 [guanosine] | –
12 | 91.4 | OC[C@H]1O[C@@H](n2cnc3c(O)ncnc32)[C@H](O)[C@@H]1O [inosine] | –
13 | – | [Mg+2] [Mg^2++] | Relative activity [3]: 104%
14 | 14.3 | O=c1[nH]c(=O)c2ncn([C@@H]3O[C@H](CO)[C@@H](O)[C@H]3O)c2[nH]1 [xanthosine] | –
15 | – | O=C(O)c1cc[c]([Hg][Cl])cc1 [PCMB, reference compound] | Relative activity [3]: 102%
16 | 0 | O=C[C@H](O)[C@H](O)[C@H](O)CO [D-ribose] | –
17 | – | Triton X-100 | Relative activity [1]: 104%
18 | – | [Co+2] [Co^2+] | Relative activity [3]: 104%
19 | – | sodium lauryl benzene sulfonate | Relative activity [1]: 38%
20 | 65.7 | Nc1ccn([C@@H]2O[C@H](CO)[C@@H](O)[C@H]2O)c(=O)n1 [cytidine] | –
21 | 0 | O=c1[nH]cnc2nc[nH]c12 [hypoxanthine] | –
22 | 0 | Cc1c[nH]c(=O)[nH]c1=O [thymine] | –
23 | 8.1 | Nc1ccn([C@@H]2O[C@H](CO)[C@@H](O)[C@@H]2O)c(=O)n1 [arabinosylcytosine, 1-β-D-arabinofuranosylcytosine, reference compound] | –
24 | 99.1 | Nc1ncnc2c1ncn2[C@H]1C[C@H](O)[C@@H](CO)O1 [2'-deoxyadenosine] | –
25 | – | [Zn+2] [Zn^2+] | Relative activity [3]: 94%
26 | 0 | O=c1[nH]c(=O)c2ncn([C@@H]3O[C@H](COP(=O)(O)O)[C@@H](O)[C@H]3O)c2[nH]1 [5'-XMP] | –
27 | – | O=C(O)CN(CCN(CC(=O)O)CC(=O)O)CC(=O)O [EDTA, reference compound] | Relative activity [3]: 98%
28 | 0 | Nc1ncnc2c1ncn2[C@@H]1O[C@H](COP(=O)(O)O)[C@@H](O)[C@H]1O [5'-AMP] | –
29 | 0 | Nc1ncnc2nc[nH]c12 [adenine] | –
30 | – | CCCCCCCCCCCCOS(=O)(=O)[O-].[Na+] [sodium dodecyl sulfate] | Relative activity [1]: 66%

Row | Compound | Relative activity [2] [%] | other results
31 | Cc1cn([C@H]2C[C@H](O)[C@@H](CO)O2)c(=O)[nH]c1=O [thymidine] | 94.3 | –
32 | O=c1[nH]c(=O)c2[nH]cnc2[nH]1 [xanthine] | 0 | –
33 | Nc1ncnc2c1ncn2[C@@H]1O[C@H](CO)[C@@H](O)[C@@H]1O [arabinosyladenine, reference compound] | 67.2 | –
34 | O=c1ccn([C@@H]2O[C@H](CO)[C@@H](O)[C@H]2O)c(=O)[nH]1 [uridine] | 94.3 | –
35 | Nc1ncnc2c1ncn2[C@@H]1O[C@H](CO)[C@@H](O)[C@H]1O [adenosine] | 100 | Km [4]: 45 µM; moles of hydrogen peroxide generated per 1 mole of adenosine [5]: 2 mol; moles of oxygen consumed per 1 mole of adenosine [5]: 2 mol; generated hydrogen peroxide ([5]; adenosine 0.05 μ mole, nucleoside oxidase 3 U., colorimetric assay at 545 nm): 0.101 μ mole; consumed oxygen ([5]; adenosine 0.05 μ mole, nucleoside oxidase 3 U., oxygen electrode): 0.097 μ mole
36 | O=P(O)(O)O[C@H]1O[C@H](CO)[C@@H](O)[C@H]1O [α-D-ribose-1-phosphate] | 0 | –
37 | Nc1ncnc2c1ncn2[C@@H]1O[C@H](COP(=O)(O)OP(=O)(O)OP(=O)(O)O)[C@@H](O)[C@H]1O [5'-ATP] | 0 | –
38 | Nc1ncnc2c1ncn2[C@@H]1O[C@H](COP(=O)(O)OP(=O)(O)O)[C@@H](O)[C@H]1O [5'-ADP] | 0 | –
